Test results from the supplement of paper PMC12532568.

Tested on: Danio rerio larvae Tg(actc1b:ZsGreen-LC3), 3 dpf
Experiment: LC3 puncta relative area vs vehicle (mean) (log2 fold change); higher = more autophagy
Details: treatment time 16 h
Method: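 Transgenic ZsGreen-LC3 zebrafish larvae (2 dpf) were treated for 16 h with natural bioactives at 10, 50, 100 or 250 µM. Skeletal-muscle LC3 puncta area was measured by high-content imaging with or without 4 h of 100 mM NH4Cl, normalised to vehicle, and reported as the mean log2 fold change over 4–21 larvae.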

Structure (SMILES)	LC3 puncta (log2) (NH4Cl: + NH4Cl, 10 µM)	LC3 puncta (log2) (NH4Cl: + NH4Cl, 50 µM)	LC3 puncta (log2) (NH4Cl: + NH4Cl, 100 µM)	LC3 puncta (log2) (NH4Cl: + NH4Cl, 250 µM)	LC3 puncta (log2) (NH4Cl: - NH4Cl, 10 µM)	LC3 puncta (log2) (NH4Cl: - NH4Cl, 50 µM)	LC3 puncta (log2) (NH4Cl: - NH4Cl, 100 µM)	LC3 puncta (log2) (NH4Cl: - NH4Cl, 250 µM)
OCC(O)CO [Glycerol]	0.468	-0.233	0.425	0.628	0.0358	-0.0173	0.118	0.027
CC(C)C[C@H](N)C(=O)O [L-Leucine]	0.433	0.183	0.128	-0.405	-0.25	-0.762	-0.689	-0.726
N[C@@H](CCC(=O)O)C(=O)O [L-glutamic acid]	0.755	0.239	0.876	0.997	0.144	0.165	0.702	0.322
CC(O)C(=O)O (stereo unspecified) [Lactic acid]	0.558	0.374	0.472	0.345	0.287	-0.151	-0.219	0.079
CCCCCC=CCC=CCCCCCCCC(=O)O [Linoaleic acid]	0.722	1.36	1.01		0.542	0.956	0.433	
CC(=O)CC(=O)O [Lithium acetoacetate]	0.433	0.388	0.24	0.594	0.304	-0.266	-0.279	0.0398
O=C(O)CC(O)C(=O)O (stereo unspecified) [Malic acid]	0.364	0.607	0.449	0.554	-0.0981	-0.0981	-0.0374	-0.0364
C/C1=C2N=C(/C=C3N=C(/C(C)=C4\[N-]C(C(CC(N)=O)C4(C)CCC(=O)NCC(C)OP(=O)([O-])OC4C(CO)OC(n5cnc6cc(C)c(C)cc65)C4O)C4(C)N=C1C(CCC(N)=O)C4(C)CC(N)=O)C(CCC(N)=O)C\3(C)C)C(CCC(N)=O)C/2(C)CC(N)=O.[CH3-].[Co+3] (stereo unspecified) [Methylcobalamin]	0.507	0.557	0.386	-0.454	-0.125	-0.236	0.239	-0.503
CCCCCCCC/C=C\CCCCCCCCCCCCCC(=O)O [Nervonic acid]	0.639	0.888	1.09	0.707	-0.0528	0.0416	0.723	0.0463
NC(=O)c1cccnc1 [Nicotinamide NAM]	0.821	0.328	0.663	0.606	-0.196	-0.178	0.12	-0.631
NC(=O)c1ccc[n+]([C@@H]2O[C@H](COP(=O)([O-])O)[C@@H](O)[C@H]2O)c1 [Nicotinamide mononucleotide]	1.01	0.775	0.349	0.19	-0.0834	-0.119	-0.518	-0.271
NC(=O)c1ccc[n+]([C@@H]2O[C@H](CO)[C@@H](O)[C@H]2O)c1 [Nicotinamide riboside chloride]	0.917	0.613	0.663	0.76	0.148	-0.293	0.0672	0.257
O=C(O)c1cccnc1 [Nicotinic acid]	0.718	0.758	0.79	0.941	0.0747	0.284	0.456	0.418
CCCCCCCC(=O)O [Octanoic acid]	0.0521	0.079	0.553		-0.257	0.356	0.0532	
CCCCCCCCCCCCCCCC(=O)O [Palmitic acid]	0.572	0.0741	0.0454	0.114	0.561	-0.136	-0.712	-0.593
O=c1c(O)c(-c2ccc(O)c(O)c2)oc2cc(O)cc(O)c12 [Quercetin]	0.773	0.126	0.298	0.298	-0.173	-0.502	-1.19	-0.815
CC(=O)OC/C=C(C)/C=C/C=C(C)/C=C/C1=C(C)CCCC1(C)C [Retinol acetate]	0.716	0.504	0.948	1.18	0.543	0.167	0.303	1.12
CC1=C(/C=C/C(C)=C/C=C/C(C)=C/CO)C(C)(C)CCC1 [Retinol]	1.19	0.124	0.0946		0.12	-0.269	0.255	0.596
C[C@@H]1O[C@@H](OC[C@H]2O[C@@H](Oc3c(-c4ccc(O)c(O)c4)oc4cc(O)cc(O)c4c3=O)[C@H](O)[C@@H](O)[C@@H]2O)[C@H](O)[C@H](O)[C@H]1O [Rutin hydrate]	0.351	0.0277	0.401	0.491	-0.169	-0.116	0.291	0.18
CC(O)CC(=O)O (stereo unspecified) [Sodium 3-hydroxybutyrate]	0.123	0.569	0.8	0.884	0.0599	0.278	0.0997	0.295
CCCCCCCCCC(=O)[O-].[Na+] [Sodium decanoate]	0.524	-0.00931	-1.55	-0.382	0.285	-0.0288	-0.846	0.298
CCCCCCCC(=O)[O-].[Na+] [Sodium octanoate]	0.613	0.427	0.342	0.503	-0.0249	0.344	0.217	0.272
